Series [1] in a line: Acute oral toxicity in rats. To be noted: rat, in vivo, Wistar rats, male, mortality at 7 days, Litchfield-Wilcoxon method.
The subject of a further series is Shay ulcer of rats. The series is described as follows: Effect on Shay ulcer of rats (pylorus ligation). It counts as in vivo, Wistar male rats. Conditions: for Inhibition rate: ulcer-index 19 h after pylorus ligation. The protocol: Effect on Shay ulcer of rats
A group of 8 Wistar male rats weighing 130-180 g were used in a group. […] Nineteen hours after ligation, the severity of ulcerous lesions in the proventricular part of the stomach was observed and expressed in a numerical scale according to the method of Adami et al. (Arch. Int. Pharmacodyn. Ther., 143, 113 (1964)) as the ulcer-index. Inhibition of ulceration was calculated with ulcer-indexes of the treated group and those of a control group. The anti-ulcer effects of well-known therapeutic agents on the market, sulpiride and cetraxate, were examined for comparison.

The test system of series [2] is acetic acid-induced ulcer in rats. The series is described as follows: Effect on acetic acid-induced ulcer in rats. It counts as in vivo, male Wistar rats. Conditions: for Inhibition rate: lesion size 12 days after acetic acid. As to the method: Effect on acetic acid-induced ulcer in rats
Groups of 14-16 male Wistar rats weighing 210-280 g were used. According to the method of Okabe et al. (Folia Pharmacologica Japonica, 74, 773 (1978)), 0.015 ml of 20% acetic acid solution was injected under the serous membrane at the border of the proventricular part and glandular part of the stomach. […] The stomach was removed 12 days after the injection of acetic acid and the size of the ulcerous lesions was measured. Based on the size of the lesions, the inhibitory effect of the drug was estimated. The effects of sulpiride were also determined for comparison.

The next series can be described thus: Solubility. It counts as physicochemical.
Series [3] deals with histamine-induced ulcer in guinea-pigs. The series is described as follows: Effect on histamine-induced ulcer in guinea-pigs. It counts as in vivo, male guinea-pigs. To be noted: for Inhibition rate: 2 h. The protocol: Effect on histamine-induced ulcer in guinea-pigs
Groups of 10 male guinea-pigs weighing 280-300 g were used. […] Two hours later, the stomach was removed and the size of the ulcerous lesions were measured. Based on the size of the lesions, the inhibitory effect of the drug was estimated. The effects of sulpiride, cetraxate and aluminum sucrose sulphate were also determined for comparison.

For series [4] the following is noted: known compound; cited from earlier work.
The nature of a further series: in vivo. Conditions: mouse, in vivo, po, LD50, ICR mice, mortality at 7 days, Litchfield-Wilcoxon method. The protocol: (§1) LD50 was calculated by the Litchfield-Wilcoxon method using mortality at 7 days after drug administration.
Another series concerns ICR mice. The experiment in a line: in vivo. Conditions: Table 4: ICR mice and Wistar rats, acute oral toxicity. The protocol: as §1
Series [5] can be described thus: Stability at room temperature. It counts as physicochemical. To be noted: maleic acid salt.
[6] abbreviates: histamine-induced ulcer, 300 mg/kg, 5 mg/kg i.v. histamine.

Each structure is given as a SMILES string. Counter-ions that a name gives are not always drawn.

A word on the LD50: it is the dose at which mortality reaches 50%. Take `CN1CCC2=C(C1)c1ccccc1Cc1ccccc12` [MO-8282, 2-N-methyl-1,2,3,4-tetrahydro-9H-dibenzo[a,e]-pyridino[3,4-c]-cycloheptatriene]: the 50% lethal dose (LD50) at 168 h in [1] is 630 mg/kg; in “in vivo” (female), 454 mg/kg; in the series “in vivo” (male), 423 mg/kg. Besides, the “inhibitory action on Shay ulcer (in words)” value in the series with Shay ulcer of rats is recorded as “significant inhibitory action on Shay ulcer in rats”. The Inhibition rate is recorded as 34.9% in the series on Shay ulcer of rats (Shay ulcer, 3 mg/kg s.c.); 44.2% in the series on Shay ulcer of rats (Shay ulcer, 10 mg/kg s.c.); 23.2% in [2] (acetic acid-induced ulcer, 3 mg/kg orally three times a day for 10 days); 51.2% in series [2] (acetic acid-induced ulcer, 10 mg/kg orally three times a day for 10 days); 54.7% in series [3] (histamine-induced ulcer, 3 mg/kg orally 10 min before 5 mg/kg i.v. histamine); 98.6% in series [3] (histamine-induced ulcer, 10 mg/kg orally 10 min before 5 mg/kg i.v. histamine). The “efficacy compared with reference drugs (in words)” value with Shay ulcer of rats (Shay ulcer, versus sulpiride and cetraxate) was “superior to the two reference drugs, sulpiride and cetraxate”; in series [3] (histamine-induced ulcer, versus the reference drugs), “superior to that of the reference drugs”. For the same molecule, the “inhibitory action on acetic acid-induced ulcer (in words)” value in series [2] was “significant inhibitory action on acetic acid-induced ulcer in rats”. Moreover, in [2] (acetic acid-induced ulcer, microscopic observation), the “promotion of healing (in words)” value was “promotion of healing by the compound was also evident under microscopic observation”. The “efficacy compared with reference drug (in words)” value in [2] (acetic acid-induced ulcer, versus sulpiride) is “superior to that of the reference drug with a lower dose”. In “Solubility” (ethanol, free base), the “solubility (insoluble in)” value is given as “insoluble in ethanol”. The “solubility (soluble in)” value in “Solubility” (solvents in which soluble, free base) is “soluble in ether, ethyl acetate, n-hexane and chloroform”. In series [3], the “inhibitory action on histamine-induced ulcers (in words)” value is reported as “significant inhibitory action on histamine-induced ulcers in guinea-pigs”. Further, in series [4], the “anti-depressive activity (in words)” value was “has anti-depressive activity”. The “toxic dose compared with therapeutic dose (in words)” value with ICR mice is given as “considerably higher than its therapeutic dose”.
On to `CCN1CCCC1CNC(=O)c1cc(S(N)(=O)=O)ccc1OC` (stereo not drawn) [Sulpiride, reference compound], for which the Inhibition rate in the series with Shay ulcer of rats (Shay ulcer, 100 mg/kg) is given as 16.3%; in series [2] (acetic acid-induced ulcer, 100 mg/kg), 43.9%; in series [3] (setting [6]), 5.6%.
`NC[C@H]1CC[C@H](C(=O)Oc2ccc(CCC(=O)O)cc2)CC1` [Cetraxate, reference compound]: the Inhibition rate was 44.2% with Shay ulcer of rats (Shay ulcer, 300 mg/kg) and -7.0% in series [3] (setting [6]).
In the case of `CN1CCC2=C(C1)c1ccccc1Cc1ccccc12` [Maleic acid salt of MO-8282], the stability result in series [5] was “stable at room temperature”. The “solubility (soluble in)” value in the series “Solubility” (water or ethanol, maleic acid salt) is “soluble in water or ethanol”.
